Test results published in article PMC7613620, “Reaction hijacking of tyrosine tRNA synthetase as a whole-of-life-cycle antimalarial strategy” (Science (New York, N.Y.), 2022).

How the values were obtained:
HCT116 = HCT116 cell viability (ATP content); assay type: cell-based; conditions: Homo sapiens, HCT-116, 72 h, read-out: HCT116 IC50(72h)
Procedure: (§1) 574 H1650 is a human lung cancer derived ATG7-null cell line (49) that can be used to assess effects on targets
(§2) 576 adenocarcinoma; bronchoalveolar carcinoma). Other cells lines used are: H460 (NCI-H460; human lung;
(§3) 577 carcinoma; large cell lung cancer; ATCC: HTB-177); and HCT116 (human colon; colorectal carcinoma;
578 ATCC: CCL-247; Lot : 5056139). Each of the cell lines was received from the American Type Culture
579 Collection (ATCC) and passaged twice before freezing. Cells were cultured in the presence or absence of
580 inhibitors and cell viability was assessed by comparing the ATP content in compound-treated wells with
581 that in DMSO-treated wells as previously described (11). […]
585 37°C humidified incubator as adherent semi-confluent monolayers in complete Dulbecco’s Modified Eagle
586 Media (c-DMEM). DMEM (Gibco™, Thermo Fisher Scientific, Australia) was supplemented with 10%

[1] = molecular target: SUMO-activating enzyme (SAE) (Homo sapiens, UniProt Q9UBT2); assay: biochemical; conditions: read-out: SAE IC50 HTRF
Chain of SUMO-activating enzyme (SAE) (Q9UBT2 whole entry): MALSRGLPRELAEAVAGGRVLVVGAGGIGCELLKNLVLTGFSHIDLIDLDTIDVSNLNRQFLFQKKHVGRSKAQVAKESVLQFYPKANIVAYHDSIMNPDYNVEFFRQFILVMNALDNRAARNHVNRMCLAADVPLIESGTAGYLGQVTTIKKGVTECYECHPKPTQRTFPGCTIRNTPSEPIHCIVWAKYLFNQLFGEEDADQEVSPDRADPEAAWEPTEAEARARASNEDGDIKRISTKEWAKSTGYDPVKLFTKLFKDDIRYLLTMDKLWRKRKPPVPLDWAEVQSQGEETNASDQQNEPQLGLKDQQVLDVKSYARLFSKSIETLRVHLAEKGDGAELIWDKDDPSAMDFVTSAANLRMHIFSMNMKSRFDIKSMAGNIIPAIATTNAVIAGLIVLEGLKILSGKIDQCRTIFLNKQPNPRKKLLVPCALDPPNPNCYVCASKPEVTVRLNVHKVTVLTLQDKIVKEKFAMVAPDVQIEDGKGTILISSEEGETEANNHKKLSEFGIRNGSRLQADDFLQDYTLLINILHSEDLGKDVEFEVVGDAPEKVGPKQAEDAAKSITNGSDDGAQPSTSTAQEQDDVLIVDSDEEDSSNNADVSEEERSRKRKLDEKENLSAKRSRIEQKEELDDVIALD
Chain of SUMO-activating enzyme (SAE) (Q9UBE0 whole entry partner): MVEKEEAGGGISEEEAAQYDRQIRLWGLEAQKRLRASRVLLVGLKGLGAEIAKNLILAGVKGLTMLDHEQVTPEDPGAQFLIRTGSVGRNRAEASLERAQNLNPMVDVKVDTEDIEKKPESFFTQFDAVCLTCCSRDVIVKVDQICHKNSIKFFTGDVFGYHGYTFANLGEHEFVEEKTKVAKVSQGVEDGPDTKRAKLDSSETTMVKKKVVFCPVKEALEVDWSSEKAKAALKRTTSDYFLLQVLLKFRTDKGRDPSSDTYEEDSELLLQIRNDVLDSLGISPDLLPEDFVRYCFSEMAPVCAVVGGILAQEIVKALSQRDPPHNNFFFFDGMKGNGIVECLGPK
From the text: 592 E1-E2 Transthiolation Assays
593 An Homogeneous Time-Resolved Fluorescence (HTRF) enzyme assay was employed to evaluate
594 compound activity against ATG7 as previously described (11). In this assay, a Flag-tagged ATG8 homolog
595 (GABA type A receptor-associated protein; GABARAP) is activated by ATG7 and then transthiolated to a
596 GST-tagged E2 (ATG3). The product of the enzyme reaction, Flag-GABARAP-ATG3-GST, is quantified
597 by measuring FRET between Europium-Cryptate labelled monoclonal anti-Flag M2 (CisBio International,
598 Cat# 61FG2KLB) and PHYCOLINK goat anti-GST allophycocyanin (Prozyme, PJ252p1). The activation
599 and transthiolation of ubiquitin by Ubiquitin Activating Enzyme, activation and transthiolation of NEDD8
600 by NEDD8 Activating Enzyme. […]
606 Compounds were incubated with mature stage V gametocytes ([…], kind gift from Professor Chris Janse
607 at Leiden University Medical Center (LUMC), the Netherlands) for 48 hours in 384 well plates before
608 gamete formation was triggered by a drop in temperature and addition of xanthurenic acid. […]
611 Multiple data sets using different gametocyte cultures were collected on each of two separate days.
613 Activity against exoerythrocytic stages
614 Primary human hepatocytes (H1500.H15B+ Lot No. HC10-10 Cryopreserved human hepatocytes) […]

[2] = tested on: P. falciparum (Cam3.II-rev) schizont stage; assay: 3 h drug pulse viability assay; assay type: cell-based, Plasmodium falciparum; conditions: Plasmodium falciparum, 3 h, read-out: IC50 (Viability)
Procedure: 553 Sigma-Aldrich) for 48-72 h. For drug pulse assays, tightly synchronized parasites (1-1.5% parasitemia,
554 0.2% final hematocrit) were added to the plates and incubated for 3 h. Drugs were removed and the
555 parasitemia assessed in the trophozoite stage of the next cycle.
557 Compounds were tested against a range of drug resistant field isolates and laboratory strains using a
558 modified [3H]-hypoxanthine incorporation assay, as previously reported (46). Field isolates 7G8, Cam3.1,
559 Dd2, K1, TM90C2B and NF54 were obtained from MR4 (www.beiresources.org).
561 Mammalian cell culture experiments
562 The HepG2 (Human hepatocyte carcinoma) cell line was procured from ATCC (American Type
563 Culture Collection, Manassas, USA; HB-8065) and viability assessed using Cell Titer-GLO luminescent
564 cell viability assay reagents (Promega, catalogue number: G7570) (47, 48). For the assay, 2000 cells/well
565 were plated in 384-well plates 24 h prior to the experiment and incubated at 37°C in a CO2 incubator. The
566 medium was removed and cells were treated with fresh medium containing either vehicle (0.5% DMSO)
567 or serially diluted test compounds or doxorubicin (1.3 nM to 25 µM) in a final volume of 50 µl/well and
568 further incubated for 72 h at 37°C in a CO2 incubator.
569 were treated with 5 µl of 1% Triton X-100 (final assay conc. 0.1%). Following incubation, 25 µl of medium
570 was discarded and 25 µl of Cell Titer-GLO reagent was added to each well and the plate was kept on a plate
571 shaker for 15 min at 25°C with shaking at 300 rpm. Luminescence signals were measured in a Spectramax
572 M5 reader (Molecular Devices).
as §1, §2, §3
578 ATCC: CCL-247; Lot : 5056139). […]
580 inhibitors and cell viability was assessed by comparing the ATP content in compound-treated wells with […]

PfYRS = PfYRS (Plasmodium falciparum, UniProt Q8IAR7); assay: biochemical; assay type: binding; conditions: PfYRS incubated with ML901 in the presence of Tyr, ATP and tRNATyr
Chain of PfYRS (Q8IAR7 entry or part of it): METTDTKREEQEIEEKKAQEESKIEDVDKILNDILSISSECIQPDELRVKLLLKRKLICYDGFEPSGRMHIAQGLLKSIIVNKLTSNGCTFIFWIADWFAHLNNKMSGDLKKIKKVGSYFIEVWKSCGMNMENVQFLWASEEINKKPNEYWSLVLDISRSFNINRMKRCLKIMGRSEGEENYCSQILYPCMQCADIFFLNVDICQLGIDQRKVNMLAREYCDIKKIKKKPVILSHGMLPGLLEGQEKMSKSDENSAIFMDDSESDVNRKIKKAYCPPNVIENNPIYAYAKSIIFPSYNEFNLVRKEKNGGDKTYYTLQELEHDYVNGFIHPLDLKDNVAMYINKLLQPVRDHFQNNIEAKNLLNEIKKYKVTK
Procedure: 804 An intron was detected in the PftRNATyr sequence, that was not indicated in PlasmoDB. A T7 RNA
805 polymerase promoter sequence was added to the 5’ end of the DNA sequence of P. falciparum and H.
806 sapiens tRNATyr. This DNA template and its complementary strand were custom-synthesized by Sigma-
807 Aldrich. Two oligonucleotides were annealed at 95°C for 5 min and the double-stranded DNA template
808 was used for in vitro transcription. The transcription reaction was incubated at 37°C overnight. The reaction
809 mixture consists of template DNA, T7 RNA polymerase and NTP mix as per manufacturer's instructions
810 (HiScribe™ T7 Quick High Yield RNA Synthesis Kit, NEB). On the following day, the reaction mixture
811 was treated with DNase I at 37°C for 15 min. tRNA was purified using RNA clean-up spin columns
812 (Monarch® RNA Cleanup Kit, NEB) to remove contaminants from the transcription reaction.
814 Differential scanning fluorimetry (DSF)
815 PfYRS and HsYRS at 0.1 mg/ml were incubated with various substrates at 37°C for 1-3 h. PfYRS was
816 assayed in 25 mM Tris, pH 8, 150 mM NaCl, 5 mM MgCl2 and 1 mM TCEP. HsYRS was assayed in 50
817 mM Tris, pH 7.5, 150 mM NaCl, 50 mM KCl, 5 mM MgCl2 and 1 mM TCEP. SYPRO Orange (Sigma-
818 Aldrich; 5,000X concentrate in DMSO) was added to the reaction mixture at a final concentration of 2.5X.
819 25 µL of the sample was added into each well of a 96-well qPCR plate (Applied Biosystems). The plate
820 was sealed and analysed using StepOnePlus Real-Time PCR system (Applied Biosystems). The samples
821 were heated from 20°C to 90°C with a 1% continuous gradient. The thermal unfolding curve was plotted
822 as the first derivative curve of the raw fluorescence values. The melting temperature (Tm), defined as the
823 peak of the first derivative curve, was used to assess the thermal stability of protein-ligand complexes. KD
824 values were calculated from DTm using the equation: ln(KD/[L]) = -131.5 x (∆Tm/Tm,apo) - 1.9, where [L]
825 is the concentration of ligand and T is the temperature in Kelvin (40). […]

With `Nc1ncnc2c1c(OC(F)F)nn2[C@@H]1O[C@H](COS(N)(=O)=O)[C@@H](O)[C@H]1O` [ML901] the IC50 (HCT116) was 2280 nM, the IC50 [1] was over 1000 nM and the IC50 [2] was 56 nM. The “increase of apparent protein melting point (Tm)” value (PfYRS) was 15 °C.
